5 substances from patent publication US12458688B2, “Epitopes” (Scancell Limited, priority 2018, dated 2025) can be followed below.

Where no end group is shown, it is not given here. [ ]: non-standard residue; d: D form. hCit = NC(=O)NCCCC[C@H](N)C(=O)O

Assay [1] deals with B16 HHDII/DP4 tumour cells. The experiment in a line: Tumour therapy, B16 HHDII/DP4 tumour in HHDII/DP4 mice. Format: in vivo, mouse. The settings on record: peptide with CpG/MPLA days 4, 11, 18. An excerpt:
(§1) To determine if the epitopes that stimulate T cell responses are presented on MHC-II within the tumour environment, our homocitrullinated peptides were checked for tumour therapy in B16 tumour models. Mice were implanted with tumour cells on day 1 and then immunised with peptides and CpG/MPLA on days 4, 11 and 18.
HHDII/DP4 mice were challenged with B16 HHDII/DP4 tumour cells and then immunised with ALDOA homocitrulline peptides (FIG. 19c).
Next, we aimed to determine if these cell populations play a role in carbamylation in the tumour microenvironment and are therefore necessary for the anti-tumour effect. HHDII/DP4 mice were implanted with tumour and then immunised with ALDOA homocitrulline peptides. Mice where then either untreated or treated with Ly6G or Ly6C depletion antibodies to remove either the neutrophils/G-MDSCs or monocytes/M-MDSCs, respectively Peptide vaccination was associated with 100% survival whereas peptide and Ly6G+antibody was associated with a slight but significant reduction in the anti-tumour effect (80% survival, p=0.04) (FIG. 23a).
Next, antibodies were used to deplete the Ly6C+ population (FIG. 23b). Ly6C depletion alone increased survival when compared to control (20% survival, p=0.0012). For this study vaccination alone gave 80% survival (p<0.0001).

Assay [2] relates to PBMCs from healthy donors. The experiment in a line: CFSE proliferation assay, CD25-depleted PBMCs of healthy donors. Format: cell-based, human. The settings on record: 10 μg/ml peptide, day 10, vs media control. As for the experimental part:
(§2) Peripheral blood samples were drawn into lithium heparin tubes (Becton Dickinson) and processed immediately following venepuncture. PBMCs were isolated by density gradient centrifugation using Ficoll-Hypaque. Proliferation and cultured ELISpot assay of PBMCs were performed immediately after isolation. For CD25 depletion PBMCs were processed as above and […] using anti-CD25 microbeads and MACS Cell Separation Columns (Miltenyi).
Briefly, a 50 μM stock solution in warm PBS was prepared from a master solution of 5 mM in dimethyl sulfoxide (DMSO). CFSE was rapidly added to PBMCs (5×10^6 cells/ml loading buffer (PBS with 5% v/v heat inactivated FCS)) to achieve a final concentration of 5 μM. PBMCs were incubated at room temperature in the dark for 5 mins after which non-cellular incorporated CFSE was removed by washing twice with excess (×10 v/v volumes) of loading buffer (300g ×10 mins). Cells were made up in complete media to 1.5×10^6/mL and plated and stimulated with vehicle (negative control), PHA (positive control, final concentration 10 μg/ml) or peptide (10 μg/ml) as described above.
On day 10, 500 μl of cells were removed from culture, washed in PBS and stained with 1:50 dilution of anti-CD4 (PE-Cy5, clone RPA-T4, ThermoFisher), anti-CD8 efluor 450, clone RPA-T8, ThermoFisher) and anti-CD134 (PE-Cy7, Clone REA621, Miltenyi). […] Stained samples were analysed immediately on a MACSQuant 10 flow cytometer equipped with MACSQuant software version 2.8.168.16380.
Determination as to the existence of a repertoire of T cells for carbamylated epitopes in humans was investigated using PBMCs from normal, healthy donors. […] Cells were labelled with CFSE and proliferation was monitored after stimulation with homocitrulline peptides. […]
Determination as to the existence of a repertoire of T cells for carbamylated Cyk8 epitopes in humans was investigated using PBMCs from seven normal, healthy donors. […] Cells were labelled with CFSE and proliferation was monitored after stimulation with Cyk8 Hcit peptides.

Assay [3] deals with PBMCs from cancer patients. The experiment in a line: CFSE proliferation assay, CD25-depleted PBMCs of cancer patients. The settings on record: 10 μg/ml peptide, day 10, vs media control. Type of assay: cell-based, human. How it is done:
as §2
Briefly, a 50 μM stock solution in warm PBS was prepared from a master solution of 5 mM in dimethyl sulfoxide (DMSO). CFSE was rapidly added to PBMCs (5×10^6 cells/ml loading buffer (PBS with 5% v/v heat inactivated FCS)) to achieve a final concentration of 5 μM. PBMCs were incubated at room temperature in the dark for 5 mins after which non-cellular incorporated CFSE was removed by washing twice with excess (×10 v/v volumes) of loading buffer (300g ×10 mins). […]
On day 10, 500 μl of cells were removed from culture, washed in PBS and stained with 1:50 dilution of anti-CD4 (PE-Cy5, clone RPA-T4, ThermoFisher), anti-CD8 efluor 450, clone RPA-T8, ThermoFisher) and anti-CD134 (PE-Cy7, Clone REA621, Miltenyi). […] Stained samples were analysed immediately on a MACSQuant 10 flow cytometer equipped with MACSQuant software version 2.8.168.16380. […]

The next assay has as its system B16F1 HHDII/DR1 tumours. Briefly: Tumour therapy, B16F1 HHDII/DR1 tumour in HHDII/DR1 mice. The conditions noted are these: peptide with CpG/MPLA days 4, 11, 18. Format: in vivo, mouse.
Source text: as §1
HHDII/DR1 (FIG. 19a) or DR4 (FIG. 19b) transgenic mice were challenged with B16F1 HHDII/DR1 or B16F1 DR4 tumours respectively prior to immunisation with vimentin 116-135Hcit peptide and tumour growth and survival were monitored.
HHDII/DR1 mice were implanted with B16HHDII/DR1 tumour cells on day 1 and then immunised with Cyk8 371Hcit, 112hcit or both peptides and CpG/MPLA on days 4, 11 and 18.

Assay [4] has as its system B16HHDII/iDP4 tumour cells. The experiment in a line: Tumour therapy, B16HHDII/iDP4 tumour in HHDII/DP4 mice. The settings on record: peptide with CpG/MPLA. Type of assay: in vivo, mouse. How it is done:
For tumour challenge experiments, mice were challenged with B16F1 cells s.c. on the right flank 3 days before primary immunisation (unless stated otherwise) and subsequently immunised as above. Tumour implants were carried out at dose of 2.5×10^4 cells/mouse for B16F1, 2.5×10^4 cells/mouse for B16F1 DR4, 4×10^5 cells/mouse for B16F1 HHDII/DP4, 5×10^5 cells/mouse for B16 HHDII/DR1, 1×10^5 cells/mouse for B16F1 HHDII/inducibleDP4, 5×10^4 cells/mouse for B16F1 inducible DR4. For studies involving depletion antibodies, 250 μg anti-mouse Ly6C antibody (clone Monts, BioXcell) was administered i.p. on days 8, 10, 12, 15, 17 and 19. 400 μg anti-mouse Ly6G antibody (clone 1A8, Biolegend) was administered i.p. on day 8 followed by 250 μg on days 11, 15 and 18. Anti-human CD4 antibody (clone OKT4, BioXcell) or anti-mouse CD8 antibody (clone 2.43, BioXcell) were administered at 500 μg dose on day 4 followed by 300 μg dose on days 8 and 11. Tumour growth was monitored twice weekly and mice were humanely euthanised once tumour reached ≥15 mm in diameter.
To provide further evidence for the role of CD4 T cell responses in tumour therapy HHDII/DP4 mice were implanted with B16HHDII/iDP4 tumour cells on day 1 and then immunised with peptides and CpG/MPLA on days 4, 8 and 11. Concurrent with peptide immunisation mice were also treated with CD4 or CD8 depleting antibody and tumour growth monitored. […] To show whether cyanate/isocyanic acid can cross cell membranes B16F1 melanoma cell line was cultured in vitro in the presence or absence of potassium cyanate which is in dynamic equilibrium with isocyanic acid. As a positive control lysates were also produced from in vitro cultured B16F1 cells and then treated with or without KCNO.

Assay [5] deals with B16F1 HHDII cells that cannot express DR1. The experiment in a line: Tumour therapy, B16F1 HHDII lacking DR1 in HHDII/DR1 mice. Type of assay: in vivo, mouse. The settings on record: tumour without DR1. The source says: This is also true in the ALDOA immunised mice.

In assay [1], “IGGVILFHETLYQ-hcit-ADDGRP (IGGVILFHETLYQ[hCit]ADDGRP) [Aldolase A 74-93 Hcit]” displayed a survival of 90%. The “CD4 T cell proliferation” value in assay [2] is listed as “significant CD4 proliferation”; in assay [3], “significant proliferative responses”.

With “LEQQN-hcit-MLET-hcit-WSLLQQQ-hcit-T (LEQQN[hCit]MLET[hCit]WSLLQQQ[hCit]T) [Cyk8 112-131 Hcit]”, the “anti-tumour response / survival vs control” value with B16F1 HHDII/DR1 tumours was “Significant prevention of tumour growth”.

Regarding “LREYQELMNV-hcit-LALDIEI (LREYQELMNV[hCit]LALDIEI) [Cyk8 371-388 Hcit]”, the “anti-tumour response / survival vs control” value in the assay on B16F1 HHDII/DR1 tumours was “Significant prevention of tumour growth”. The “tumour growth / survival vs control” value in assay [4] is “Significant prevention of tumour growth”.

On to “NYID-Hcit-VRFLEQQN-Hcit-ILLAEL (NYID[hCit]VRFLEQQN[hCit]ILLAEL) [Vimentin 116-135 Hcit]”, for which the survival in the assay with B16F1 HHDII/DR1 tumours turned out to be 50%. The survival vs control result in assay [5] is reported as “no survival advantage”. Further, the “CD4 T cell proliferation” value is given as “significant CD4 proliferation” in assay [2] and “just short of significance” in assay [3].

“hcit-DGADFA-hcit-WRCVL-hcit-IGEH ([hCit]DGADFA[hCit]WRCVL[hCit]IGEH) [Aldolase A 140-157 Hcit]”: in assay [1], the survival was determined as 60%. For the same substance, the “anti-tumour response / survival vs control” value in the assay with B16F1 HHDII/DR1 tumours is given as “significant increase in survival”. In assay [2], the “CD4 T cell proliferation” value is recorded as “significant CD4 proliferation”.
